The values below come from US20240398831A1, “COMPOSITIONS COMPRISING SMALL MOLECULE REGULATORS OF TUMOR IMMUNITY AND METHODS OF USING SAME” (Duke University, priority 2021, published 2024).

One assay deals with B16F10 cells. The assay can be described thus: Proliferation assay. The class given is cell-based, mouse. The following applies: E2 0.01-1 nM, 3 days. As to the method:
ERα+ MCF7 cells served as a positive control. Cells were treated as either mock transfected or transfected with scrambled control or three different siRNA targeting Esr1. […] Esr1 was first normalized to Rplp0 and then Esr1 knockdown samples were normalized to a non-targeting control. RNA was collected from both cell lines after 48 hr of siRNA transfection. […] Mouse ovary served as a positive control. […] ERα+MCF7 cells served as a positive control (FIG. 5E, left). […] Data are expressed as individual data points and represented as mean±S.E.M. Significance was calculated by Student's t test or two-way ANOVA (FIGS. 5E-5F), followed by Bonferroni's multiple correction (**p<0.0001).
Proliferation assay. For proliferation assays, B16F10 cells were plated in DMEM media (without phenol red) supplemented with 10% charcoal-stripped FBS. Cells were plated at a concentration of 1000 cells/well of a 96-well plate for 2 days in 200 μL of media. […] Cells were collected every 24 hr by discarding the media from the plates. Plates were frozen at −80° C. […] Cell numbers were determined by the addition of 100 μL of (conc.) DNA dye […] dye (Sigma Cat #94403) in TNE buffer (10 mM Tris, 2M NaCl and 1 mM EDTA) and the fluorescence was read at an excitation of 360 nm and an emission at 465 nm using a microplate reader.

For assay [1], the system named is WNT5A and TCF4 target genes. The assay can be described thus: Quantitative PCR of tumor infiltrating myeloid cells from iBP tumors. The class given is in vivo, mouse. As to the method: All target genes were normalized to Rplp0 and then siEsr1 (FIG. 14E) or DMSO (FIG. 14F) samples were normalized to siRNA control. Data are represented as mean±S.E.M. Significance was calculated by Student's t test (FIGS. 14C-14D) (*p<0.05, **p<0.01, and ***p<0.001).
Quantitative PCR of tumor Infiltrating myeloid cells. Tumor infiltrating myeloid cells were isolated from iBP tumors using a CD11b isolation kit (catalog #18970, StemCell Technologies). RNA was isolated using RNA Aqueous Micro kit (catalog #1931, Ambion) followed by cDNA synthesis using an iScript cDNA synthesis kit (Cat #170-7691). Quantitative amplification was performed using Sybr Green (Cat #1725124, Bio-Rad) and a CFX-384 Real Time PCR detection system. Primers used are listed below in TABLE 1.

17β-estradiol [E2]: in the assay on B16F10 cells, the proliferation entry was “nor did it support proliferation”. Further, the “genes in the WNT5A and TCF4 pathways” value in assay [1] (E2 compared to placebo) is on record as “differentially regulated”. In addition, the “expression of Vegfa, Tgm2 and Tspo and Stat1” value in assay [1] (myeloid cells from E2 treated tumors) was “increased expression”.
